Assay results as given in publication PMC5264272 (EBioMedicine, 2016).

What was measured:
[1] = test system: human multiple myeloma cells; details: immunodeficient mice; ref Chauhan et al., 2012; cited from earlier work
murine Treg cells = assay: Treg suppression assay with Tregs pre-treated in vitro; format: cell-based; details: 10 μM, 2 h pre-treatment of Tregs, washing, 3-day suppression assay

For `CC(=O)c1cc([N+](=O)[O-])c(Sc2cccc(Cl)c2Cl)s1` [P5091], the “growth of human multiple myeloma cells as xenografts” value [1] is listed as “direct effects on the growth” and the “effect on murine Treg function in vitro” value (murine Treg cells) is listed as “almost completely abrogated Treg function”.
